Source: PMC10544575, “Inhibitory mechanism of vortioxetine on CYP450 enzymes in human and rat liver microsomes” (Frontiers in Pharmacology, 2023)
pIC50: −log10 of the molar value. Entries after “also recorded” stand apart in the source; their conditions may differ. Read-outs that look alike come from different tables or passages of the source.

Experiments:
[1] = tested on: CYP2C-2; test: IC50 of vortioxetine on CYP2C-2 (losartan) in RLMs; format: in vitro ADME; conditions: rat, rat liver microsomes, probe losartan
Protocol: (§1) The components of the incubation system were as follows: 0.20 mg/mL HLMs or 0.20 mg/mL RLMs, 0.1 M Tris-HCl, vortioxetine, and the probe substrates of each enzyme. In the study of Km’s (Michaelis–Menten constant) experiment, midazolam (1, 2, 5, 10, 20, 50 and 100 μM in HLMs and RLMs) corresponded to CYP3A4/3A; bupropion (10, 20, 50, 100, 200, 500, 1,000 and 2000 μM in HLMs; 1, 2, 5, 10, 20, 50, 100 and 200 μM in RLMs) corresponded to CYP2B6/2B; amodiaquine (5, 10, 20, 50, 100 and 200 μM in HLMs; 10, 20, 50, 100, 200, 500 μM in RLMs) corresponded to CYP2C8/CYP2C-1; losartan (1, 2, 5, 10, 20, 50, 100, 200 μM in HLMs; 10, 20, 50, 100, 200, 500 and 1,000 μM in RLMs) corresponded to CYP2C9/CYP2C-2; mephenytoin (20, 50, 100, 200, 500 and 1,000 μM in HLMs; 5, 10, 20, 50, 100, 200, 500 and 1,000 μM in RLMs) corresponded to CYP2C19/CYP2C-3; and dextromethorphan (1, 2, 5, 10, 20, 50 and 100 μM in HLMs and RLMs) corresponded to CYP2D6/CYP2D. […]
(§2) All experiments results were detected by UPLC-MS/MS, which equipped with a Waters Acquity UPLC system (Milford, MA, United States) and a Waters Xevo TQ-S triple quadrupole tandem mass spectrometer with an electrospray ionization source (Milford, MA, United States). […]
(§3) IC50 values and enzyme kinetic parameters were calculated by Graphpad Prism 6.0 (GraphPad software Inc., CA, United States). […] Data for each experiment were expressed as mean ± SD (n = 3).

[2] = tested on: CYP3A; test: IC50-shift experiment, CYP3A in RLMs; format: in vitro ADME; conditions: rat, rat liver microsomes, probe midazolam; for IC50 at 30 min: midazolam 3.5 μM
[3] = tested on: CYP450; test: Overall assessment of time-dependent inhibition (IC50-shift) on CYP450 in HLMs and RLMs; format: in vitro ADME, human and rat
Protocol: IC50-shift was used to investigate whether the drug produced time-dependent inhibition (TDI) of the enzyme. […] The above mixture was then incubated for another 30 min. During the experiment, the individual substrates midazolam (4 μM), bupropion (40 μM), amodiaquine (3 μM), losartan (8 μM), mephenytoin (90 μM), and dextromethorphan (10 μM) were determined with vortioxetine IC50-shift in HLMs. […] Other experimental conditions were the same as above.

[4] = tested on: CYP3A; test: IC50 of vortioxetine on CYP3A (midazolam) in RLMs; format: in vitro ADME; conditions: rat, rat liver microsomes, probe midazolam
Protocol: as §1, §2, §3

[5] = target: CYP2C9 (Homo sapiens, UniProt P11712); test: IC50 of vortioxetine on CYP2C9 (losartan) in HLMs; format: in vitro ADME; parameters: 0.20 mg/mL HLMs; from tissue; host or cells: human liver microsomes
CYP2C9, sequence (P11712 whole entry): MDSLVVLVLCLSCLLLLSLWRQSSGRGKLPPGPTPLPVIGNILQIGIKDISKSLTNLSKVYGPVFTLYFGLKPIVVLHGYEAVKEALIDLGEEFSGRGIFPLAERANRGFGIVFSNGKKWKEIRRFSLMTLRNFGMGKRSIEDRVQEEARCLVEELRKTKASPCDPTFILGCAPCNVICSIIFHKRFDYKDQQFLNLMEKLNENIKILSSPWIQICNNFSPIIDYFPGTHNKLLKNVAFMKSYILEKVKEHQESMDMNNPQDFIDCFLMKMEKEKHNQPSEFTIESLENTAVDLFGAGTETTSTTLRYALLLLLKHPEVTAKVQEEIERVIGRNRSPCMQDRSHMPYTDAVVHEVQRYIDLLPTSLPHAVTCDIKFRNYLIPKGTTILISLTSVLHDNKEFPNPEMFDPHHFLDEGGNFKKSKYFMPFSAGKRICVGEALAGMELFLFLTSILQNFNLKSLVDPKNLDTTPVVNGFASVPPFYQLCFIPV
Protocol: as §1, §2, §3

[6] = tested on: CYP2C-1; test: Reversible inhibition kinetics (Lineweaver-Burk), CYP2C-1 in RLMs; format: in vitro ADME, rat
Protocol: The components of the incubation system were as follows: 0.20 mg/mL HLMs or 0.20 mg/mL RLMs, 0.1 M Tris-HCl, vortioxetine, and the probe substrates of each enzyme. In the study of Km’s (Michaelis–Menten constant) experiment, midazolam (1, 2, 5, 10, 20, 50 and 100 μM in HLMs and RLMs) corresponded to CYP3A4/3A; bupropion (10, 20, 50, 100, 200, 500, 1,000 and 2000 μM in HLMs; 1, 2, 5, 10, 20, 50, 100 and 200 μM in RLMs) corresponded to CYP2B6/2B; amodiaquine (5, 10, 20, 50, 100 and 200 μM in HLMs; 10, 20, 50, 100, 200, 500 μM in RLMs) corresponded to CYP2C8/CYP2C-1; losartan (1, 2, 5, 10, 20, 50, 100, 200 μM in HLMs; 10, 20, 50, 100, 200, 500 and 1,000 μM in RLMs) corresponded to CYP2C9/CYP2C-2; mephenytoin (20, 50, 100, 200, 500 and 1,000 μM in HLMs; 5, 10, 20, 50, 100, 200, 500 and 1,000 μM in RLMs) corresponded to CYP2C19/CYP2C-3; and dextromethorphan (1, 2, 5, 10, 20, 50 and 100 μM in HLMs and RLMs) corresponded to CYP2D6/CYP2D. After 5.0 min of preincubation in the shaking water bath, the reaction was started with the addition of 1.0 mM NADPH. The incubated temperature at 37°C for 30 min. After the incubation, the enzyme reaction was stopped by cooling at −80°C, and 200 μL of acetonitrile and 20 μL of internal standard diazepam (200 ng/mL) were added for protein precipitation. The solution was fully vortexed and centrifuged at 13,000 × rpm for 10 min, and the supernatant was collected for data analysis by UPLC-MS/MS.
The inhibitory mechanism of the inhibitor on the enzyme was generally used by different concentrations of the inhibitor against different concentrations of the probe substrate. The concentrations of the inhibitor and the concentrations of probe substrates in the experiment were estimated based on IC50 and Km values, respectively.
In RLMs, the concentrations of the substrates midazolam and dextromethorphan were 0.8, 1.6, 3.5, 7 μM and 5, 10, 20, 40 μM, respectively, vortioxetine concentrations were 4, 8, 16, 32 μM. The concentrations of mephenytoin and amodiaquine were 100, 200, 400, 800 μM and 5, 10, 20, 40 μM, respectively, vortioxetine concentrations were 5, 10, 20, 40 μM. The losartan concentrations were 4, 8, 15, 30 μM, corresponding to vortioxetine concentrations of 0.08, 0.15, 0.3, 0.6 μM. […]
as §2, §3

[7] = parameters: method as in Chen et al., 2018; conditions: single oral dose of 10 mg; 14 healthy subjects; ref Chen et al., 2018; cited from earlier work
[8] = inhibitory effect (strength judged by IC50), RLMs

Structure (SMILES): Cc1ccc(Sc2ccccc2N2CCNCC2)c(C)c1 [vortioxetine]
- IC50 at 30 min ([1]; RLMs 0.20 mg/mL, losartan at Km, 37°C, 30 min, read-out: IC50): 370 nM
- IC50 at 30 min [1, 8]: < 1000 nM
- IC50 at 30 min ([2]; 30 min preincubation with 1.0 mM NADPH): 16.4 µM
- IC50 at 30 min ([2]; 30 min preincubation without NADPH): 20.9 µM
- IC50 shift at 30 min ([2]; ratio IC50 (−) NADPH to IC50 (+) NADPH, read-out: IC50 fold shift): 1.28
- reversibility of inhibition of CYP450 enzymes ([3]; all CYP450 enzymes studied): reversible inhibition
- time-dependent inhibition (TDI) ([3]; six CYP450 isoforms in HLMs and RLMs, judged by IC50-shift (>10 = TDI)): no time-dependent inhibition (TDI); also recorded: no TDI effect
- IC50 at 30 min ([4]; RLMs 0.20 mg/mL, midazolam at Km, 37°C, 30 min, read-out: IC50): 16.4 µM
- IC50 at 30 min [4, 8]: > 10 µM
- pIC50 ([5]; HLMs 0.20 mg/mL, losartan at Km, 37°C, 30 min, read-out: IC50): 4.64
- pIC50 ([5]; inhibitory effect (strength judged by IC50), HLMs): < 5.00
- α ([6]; amodiaquine): 1.42
- Inhibition type ([6]; amodiaquine, Lineweaver-Burk plot): mixed inhibition
- αKi ([6]; amodiaquine, secondary plot of y-intercepts): 56.73 µM
- Ki at 30 min ([6]; rat, rat liver microsomes, probe amodiaquine): 39.9 µM
- AUC(0-t) [7]: 254.72 ngh/mL
- Cmax [7]: 4.60 ng/mL
